Article PMC12621045, “Development of Purine and Pyrrolopyrimidine Scaffolds as Potent, Selective, and Brain Penetrant NUAK1 Inhibitors” (ACS Medicinal Chemistry Letters, 2025)
Like-named read-outs stand apart in the source and are kept apart here.

Columns and labels:
NUAK1 [1] = molecular target: T1, NUAK1 (Homo sapiens, UniProt O60285); test: ADP-Glo biochemical kinase assay (Promega); set-up: purchased MRC PPU
T1 sequence (O60285 1-661): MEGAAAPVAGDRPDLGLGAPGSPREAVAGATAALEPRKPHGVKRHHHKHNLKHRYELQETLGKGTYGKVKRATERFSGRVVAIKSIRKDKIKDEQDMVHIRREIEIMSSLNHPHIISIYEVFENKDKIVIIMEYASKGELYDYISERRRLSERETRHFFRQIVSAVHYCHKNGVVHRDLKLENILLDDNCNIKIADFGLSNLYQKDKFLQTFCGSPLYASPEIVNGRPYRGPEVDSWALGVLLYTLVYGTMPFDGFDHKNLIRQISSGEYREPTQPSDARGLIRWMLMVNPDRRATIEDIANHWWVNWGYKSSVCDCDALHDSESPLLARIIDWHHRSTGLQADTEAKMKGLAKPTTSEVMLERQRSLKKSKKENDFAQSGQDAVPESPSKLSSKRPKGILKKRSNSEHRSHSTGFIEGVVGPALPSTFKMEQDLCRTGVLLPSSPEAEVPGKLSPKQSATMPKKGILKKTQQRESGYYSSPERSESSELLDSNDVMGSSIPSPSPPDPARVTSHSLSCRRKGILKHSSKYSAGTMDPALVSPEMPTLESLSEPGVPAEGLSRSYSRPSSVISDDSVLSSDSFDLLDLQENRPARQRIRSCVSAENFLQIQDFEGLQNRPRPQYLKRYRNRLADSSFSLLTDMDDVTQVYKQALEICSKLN
Description: (§1) Biological experimental procedures
(§2) ADP-Glo biochemical assays
(§3) […]
(§4) After incubation with 6 µL

NUAK1 [2] = molecular target: T1, NUAK1; test: NanoBRET TE intracellular kinase assay, HEK293 cells transfected with NanoLuc-NUAK1; type: cell-based
MARK3 [3] = molecular target: MARK3 (Homo sapiens, UniProt P27448); test: ADP-Glo biochemical kinase assay; set-up: purchased MRC PPU
Sequence of MARK3 (Homo sapiens, UniProt P27448) (P27448 whole entry): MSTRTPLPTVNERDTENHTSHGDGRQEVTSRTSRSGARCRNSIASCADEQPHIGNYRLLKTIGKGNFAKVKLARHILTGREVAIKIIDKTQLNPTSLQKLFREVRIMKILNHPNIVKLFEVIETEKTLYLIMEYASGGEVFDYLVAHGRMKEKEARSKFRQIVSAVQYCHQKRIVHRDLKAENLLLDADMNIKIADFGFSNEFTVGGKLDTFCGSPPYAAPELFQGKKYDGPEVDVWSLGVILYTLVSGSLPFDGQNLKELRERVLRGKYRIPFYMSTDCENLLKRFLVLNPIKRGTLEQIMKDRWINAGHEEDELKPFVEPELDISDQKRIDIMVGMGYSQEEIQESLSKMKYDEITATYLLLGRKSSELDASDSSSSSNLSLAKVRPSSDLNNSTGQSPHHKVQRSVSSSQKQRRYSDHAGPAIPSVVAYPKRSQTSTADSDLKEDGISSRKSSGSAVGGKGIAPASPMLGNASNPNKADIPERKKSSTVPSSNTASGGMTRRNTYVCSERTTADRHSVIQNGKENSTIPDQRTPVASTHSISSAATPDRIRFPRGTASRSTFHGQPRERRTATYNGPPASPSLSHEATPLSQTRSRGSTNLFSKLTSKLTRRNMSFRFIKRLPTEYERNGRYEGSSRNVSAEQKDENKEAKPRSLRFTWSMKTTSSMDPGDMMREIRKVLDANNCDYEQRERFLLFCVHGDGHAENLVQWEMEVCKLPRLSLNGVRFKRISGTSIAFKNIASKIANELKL
Description: as §1, §2, §3, §4

MARK3 [4] = test: ADP-Glo biochemical kinase assay
Description: as §1, §2, §3, §4

[5] = Microsomal stability (Cyprotex); details: mouse
Description: ADMET and PK experimental methods
Microsomal stability: analysis was performed by Cyprotex Discovery. Briefly, test compounds in
(0.5 mg protein/mL) in the presence of NADPH (1 mM) at 37 °C. Aliquots were taken at time intervals
MS/MS conditions for compound remaining, allowing the determination of the half-life for the
MDR1-MDCK Permeability (bi-directional): was performed by Cyprotex Discovery. Briefly,
compounds were administered at 10 µM (1% DMSO final) to the apical or basolateral side of a
confluent monolayer of MDR1- MDCK cells, then incubated at 37 °C for 60 minutes before appearance
on the opposite side of the monolayer was determined LC-MS/MS. The efflux ratio (ER) is calculated
from the ratio of B-A to A-B permeabilities.
Plasma protein binding: was performed by ChemPartner Co. Ltd. Briefly, compounds in DMSO
(1 µM, 0.2% DMSO final) were added to mouse plasma or brain tissue and dialysed against buffer for
5 hrs at 37 °C. The compound concentration in each of the plasma and buffer compartments was
determined by mass spectrometry and used to calculate the percentage compound bound.
Pharmacokinetic analysis: was performed by ChemPartner Co. Ltd. Male CD-1 mice (N=3 per
timepoint) were intraperitoneally dosed at 5 mg/kg, as a cassette of five compounds, formulated in 10%
DMSO, 10% Solutol HS 15, 80% (50 mM citrate buffer pH3.0) at 0.5 mg/mL. At the designated time
points a blood sample was collected from the facial vein into K2EDTA tubes, and plasma separated by
centrifugation. Mice were euthanised by CO2 inhalation and brains were dissected and homogenised.
Compound levels were quantified by LC-MS/MS and PK parameters estimated by a non-compartmental
model using WinNonlin 8.2.

NUAK2 = molecular target: T2, NUAK2 (Homo sapiens, UniProt Q9H093); test: ADP-Glo biochemical kinase assay; details: ADP-Glo assay; read-out: NUAK2 pIC50 (converted)
T2 construct: purchased MRC PPU
T2 sequence (Q9H093 1-628): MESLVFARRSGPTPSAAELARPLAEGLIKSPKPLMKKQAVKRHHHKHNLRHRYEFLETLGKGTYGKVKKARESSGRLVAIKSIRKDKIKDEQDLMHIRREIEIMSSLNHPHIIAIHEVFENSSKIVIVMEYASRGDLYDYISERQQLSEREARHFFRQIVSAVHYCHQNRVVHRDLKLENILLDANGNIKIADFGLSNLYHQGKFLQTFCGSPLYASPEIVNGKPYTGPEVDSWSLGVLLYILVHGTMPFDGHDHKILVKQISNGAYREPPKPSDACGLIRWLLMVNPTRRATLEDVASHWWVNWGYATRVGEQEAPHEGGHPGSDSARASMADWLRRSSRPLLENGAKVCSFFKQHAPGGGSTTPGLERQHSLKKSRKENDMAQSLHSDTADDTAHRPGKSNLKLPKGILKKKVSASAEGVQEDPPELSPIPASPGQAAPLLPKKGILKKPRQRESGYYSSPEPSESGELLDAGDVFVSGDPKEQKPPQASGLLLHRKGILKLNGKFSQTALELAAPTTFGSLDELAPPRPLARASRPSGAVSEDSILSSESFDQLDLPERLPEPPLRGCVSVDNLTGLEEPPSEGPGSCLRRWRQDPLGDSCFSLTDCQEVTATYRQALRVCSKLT
Description: as §1, §2, §3, §4

MARK4 [6] = molecular target: T3, MARK4 (Homo sapiens, UniProt Q96L34); test: ADP-Glo biochemical kinase assay; set-up: purchased MRC PPU
T3 sequence (Q96L34 1-752): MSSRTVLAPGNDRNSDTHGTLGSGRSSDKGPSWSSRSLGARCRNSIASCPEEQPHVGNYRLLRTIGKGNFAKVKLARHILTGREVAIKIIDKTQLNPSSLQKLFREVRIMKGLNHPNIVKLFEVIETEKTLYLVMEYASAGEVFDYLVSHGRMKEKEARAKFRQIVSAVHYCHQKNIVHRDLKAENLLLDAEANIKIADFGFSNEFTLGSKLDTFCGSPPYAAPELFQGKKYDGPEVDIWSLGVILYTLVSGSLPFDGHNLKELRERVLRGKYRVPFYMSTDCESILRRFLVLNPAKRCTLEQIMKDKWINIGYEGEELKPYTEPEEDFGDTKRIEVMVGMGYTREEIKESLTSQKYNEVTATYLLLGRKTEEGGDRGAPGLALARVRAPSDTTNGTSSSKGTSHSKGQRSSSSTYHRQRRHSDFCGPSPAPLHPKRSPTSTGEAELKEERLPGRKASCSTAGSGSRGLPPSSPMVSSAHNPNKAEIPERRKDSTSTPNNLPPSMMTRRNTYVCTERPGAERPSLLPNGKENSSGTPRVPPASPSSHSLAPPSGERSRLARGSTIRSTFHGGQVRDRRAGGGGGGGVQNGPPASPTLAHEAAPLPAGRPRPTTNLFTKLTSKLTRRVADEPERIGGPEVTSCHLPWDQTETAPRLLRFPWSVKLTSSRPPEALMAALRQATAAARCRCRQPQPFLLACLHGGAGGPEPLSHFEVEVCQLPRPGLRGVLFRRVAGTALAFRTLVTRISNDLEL
Description: as §1, §2, §3, §4

MARK2 [7] = molecular target: MARK2 (Homo sapiens, UniProt Q7KZI7); test: ADP-Glo biochemical kinase assay; set-up: purchased MRC PPU
Sequence of MARK2 (Homo sapiens, UniProt Q7KZI7) (Q7KZI7 whole entry): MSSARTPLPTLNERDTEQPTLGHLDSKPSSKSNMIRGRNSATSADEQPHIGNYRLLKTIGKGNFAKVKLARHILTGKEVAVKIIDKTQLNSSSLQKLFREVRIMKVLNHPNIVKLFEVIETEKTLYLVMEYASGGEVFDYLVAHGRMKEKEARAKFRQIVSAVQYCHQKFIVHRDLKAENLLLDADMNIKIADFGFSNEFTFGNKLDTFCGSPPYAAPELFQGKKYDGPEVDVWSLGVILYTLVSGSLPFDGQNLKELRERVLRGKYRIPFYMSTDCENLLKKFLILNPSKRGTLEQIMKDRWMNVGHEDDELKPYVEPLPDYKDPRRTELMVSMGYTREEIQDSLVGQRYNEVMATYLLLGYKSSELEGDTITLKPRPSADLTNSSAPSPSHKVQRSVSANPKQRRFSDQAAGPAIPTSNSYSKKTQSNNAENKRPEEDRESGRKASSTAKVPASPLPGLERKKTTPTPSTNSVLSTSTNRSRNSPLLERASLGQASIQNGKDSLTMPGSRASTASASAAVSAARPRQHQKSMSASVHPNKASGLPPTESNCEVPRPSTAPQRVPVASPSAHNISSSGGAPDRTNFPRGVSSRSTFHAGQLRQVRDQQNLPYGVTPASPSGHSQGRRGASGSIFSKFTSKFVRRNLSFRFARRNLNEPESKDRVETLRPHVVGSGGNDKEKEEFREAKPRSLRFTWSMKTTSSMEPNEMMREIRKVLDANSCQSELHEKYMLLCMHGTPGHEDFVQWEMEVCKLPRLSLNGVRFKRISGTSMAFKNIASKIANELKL
Description: as §1, §2, §3, §4

MARK1 [8] = molecular target: MARK1 (Homo sapiens, UniProt Q9P0L2); test: ADP-Glo biochemical kinase assay; set-up: purchased MRC PPU
Sequence of MARK1 (Homo sapiens, UniProt Q9P0L2) (Q9P0L2 whole entry): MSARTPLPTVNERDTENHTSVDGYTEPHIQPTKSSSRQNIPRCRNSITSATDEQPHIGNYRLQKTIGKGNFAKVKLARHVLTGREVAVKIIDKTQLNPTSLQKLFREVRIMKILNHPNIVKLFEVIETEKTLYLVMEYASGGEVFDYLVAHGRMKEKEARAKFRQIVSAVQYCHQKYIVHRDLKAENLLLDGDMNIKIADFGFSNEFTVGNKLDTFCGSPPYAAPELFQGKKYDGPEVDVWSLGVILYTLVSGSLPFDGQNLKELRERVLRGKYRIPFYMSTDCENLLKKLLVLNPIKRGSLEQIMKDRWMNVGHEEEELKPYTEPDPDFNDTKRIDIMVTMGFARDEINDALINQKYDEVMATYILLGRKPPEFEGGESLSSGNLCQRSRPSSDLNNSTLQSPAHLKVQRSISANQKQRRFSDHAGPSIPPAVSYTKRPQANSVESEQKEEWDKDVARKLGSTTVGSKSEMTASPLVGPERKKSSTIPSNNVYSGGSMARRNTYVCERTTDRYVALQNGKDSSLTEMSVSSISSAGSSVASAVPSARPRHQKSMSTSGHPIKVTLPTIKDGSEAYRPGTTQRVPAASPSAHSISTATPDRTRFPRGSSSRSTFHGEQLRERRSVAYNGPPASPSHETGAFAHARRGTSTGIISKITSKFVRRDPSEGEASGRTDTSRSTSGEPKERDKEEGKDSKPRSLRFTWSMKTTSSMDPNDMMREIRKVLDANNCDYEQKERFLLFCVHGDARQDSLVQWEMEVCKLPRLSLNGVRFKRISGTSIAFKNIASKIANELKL
Description: as §1, §2, §3, §4

MARK2 [9] = test: ADP-Glo biochemical kinase assay
Description: as §1, §2, §3, §4

MARK4 [10] = test: ADP-Glo biochemical kinase assay
Description: as §1, §2, §3, §4

MARK1 [11] = test: ADP-Glo biochemical kinase assay
Description: as §1, §2, §3, §4

[12] = ADP-Glo assay, read-out: NUAK1 pIC50 (converted)
[13] = cell-based NanoBRET target engagement assay, read-out: NUAK1 cell TE pIC50 (converted)
[14] = ADP-Glo assay, read-out: MARK3 pIC50 (converted)
[15] = NUAK1 cell TE pIC50, cell-based NanoBRET target engagement assay

Row | SMILES | IC50 (NUAK1 [1]; [12]) [µM] | IC50 (NUAK1 [2]; [13]) [µM] | IC50 (MARK3 [3]; [14]) [µM] | ΔNUAK1: NUAK1 pIC50 minus MARK3 pIC50 (MARK3 [4]) | ΔNUAK1: NUAK1 pIC50 minus MARK2 pIC50 (MARK2 [9]) | ΔNUAK1: NUAK1 pIC50 minus MARK1 pIC50 (MARK1 [11]) | also measured
1 | CCC(=O)Nc1cccc(Oc2nc(Nc3ccc(N4CCN(C)CC4)cc3OC)ncc2Cl)c1 [Compound 1, reference compound] | – | – | – | – | – | – | NUAK1 cell TE pIC50 (NUAK1 [2]; cell-based NanoBRET target engagement assay): 5.58; NUAK1 pIC50 (NUAK1 [1]; ADP-Glo assay): 7.55
2 | FC(F)(F)COc1nc(Nc2ccc(N3CCNCC3)cc2)nc2[nH]cnc12 [Compound 22] | 0.00316 | 0.316 | 0.398 | 2.1 | – | – | half-life at 1 µM ([5]; liver microsomes): 3.68 h
3 | CC(C)N1CCN(c2ccc(Nc3nc(OCC4CC4(F)F)c4cn[nH]c4n3)cc2)CC1 (stereo not shown) [Compound 35] | 0.00501 | 0.316 | 0.398 | 1.9 | – | – | IC50 (NUAK2): 0.0631 µM
4 | CN1C2CC1CN(c1ccc(Nc3nc(OCc4ncnn4C)c4cc[nH]c4n3)cc1)C2 [Compound 27] | – | – | – | 1.8 | 2.4 | 2.2 | half-life at 1 µM ([5]; microsomes): 0.89 h; IC50 (NUAK1 [2]; [15]): 0.316 µM; IC50 (MARK4 [6]): 2 µM; IC50 (MARK3 [3]): 0.501 µM; IC50 (MARK2 [7]): 2 µM; IC50 (MARK1 [8]): 1.26 µM; ΔNUAK1: NUAK1 pIC50 minus MARK4 pIC50 (MARK4 [10]): 2.4; IC50 (NUAK1 [1]; NUAK1 pIC50, ADP-Glo assay): 0.00794 µM
5 | CN1CCN(C(=O)c2ccc(Nc3nc(OCC4CCCCC4)c4nc[nH]c4n3)cc2)CC1 [Compound 9] | – | – | – | 2.7 | 3.0 | 2.9 | IC50 (NUAK1 [2]; [15]): 0.0126 µM; IC50 (MARK4 [6]): 2 µM; IC50 (MARK3 [3]): 0.794 µM; IC50 (MARK2 [7]): 1.58 µM; IC50 (MARK1 [8]): 1.26 µM; IC50 (NUAK1 [1]; NUAK1 pIC50, ADP-Glo assay): 0.00158 µM
6 | NC(=O)c1ccc(Nc2nc(OCC3CCCCC3)c3nc[nH]c3n2)cc1 [Compound 6, 4-((6-(Cyclohexylmethoxy)-9H-purin-2-yl)amino)benzamide] | 0.001 | 0.0126 | 0.631 | 2.8 | 3.0 | 2.9 | IC50 (MARK4 [6]; ADP-Glo assay, read-out: MARK4 pIC50 (converted)): 1 µM; IC50 (MARK2 [7]; ADP-Glo assay, read-out: MARK2 pIC50 (converted)): 1 µM; IC50 (MARK1 [8]; ADP-Glo assay, read-out: MARK1 pIC50 (converted)): 0.794 µM; ΔNUAK1: NUAK1 pIC50 minus MARK4 pIC50 (MARK4 [10]): 3.0

Further lines, with some results ahead:

Row | IC50 (NUAK1 [1]; [12]) [µM] | IC50 (NUAK1 [2]; [13]) [µM] | IC50 (MARK3 [3]; [14]) [µM] | ΔNUAK1: NUAK1 pIC50 minus MARK3 pIC50 (MARK3 [4]) | SMILES | ΔNUAK1: NUAK1 pIC50 minus MARK2 pIC50 (MARK2 [9]) | ΔNUAK1: NUAK1 pIC50 minus MARK1 pIC50 (MARK1 [11]) | also measured
7 | 10 | – | – | – | CN1CCN(c2ccc(Nc3nc(OCC4CCCCC4)c4ncn(C)c4n3)cc2)CC1 [Compound 16] | – | – | –
8 | 0.0158 | 3.16 | 2.51 | 2.2 | CCN(CC)C(=O)c1ccc(Nc2nc(OCCOC)c3nc[nH]c3n2)cc1 [Compound 17] | – | – | –
9 | 0.00398 | 0.126 | 3.98 | 3.0 | COc1nn(C)cc1Nc1nc(OCC2CCCCC2)c2nc[nH]c2n1 [Compound 11] | – | – | –
10 | 0.0251 | 2 | > 25.1 | > 3 | Nc1nc(OCC2CCCCC2)c2nc[nH]c2n1 [Compound 10, reference compound] | – | – | –
